# Values of other authors as cited in US11213604B2, “Composition for dressing cutaneous lesions and manufacturing method thereof” (priority 2016, dated 2022).
# Test system: cutaneous leishmanial ulcers
# Conditions: protocols (1), (3), (2) of Stahl et al., BMC Infectious Diseases 2014
substance,measurement,value
sodium stilbogluconate,Median healing time,9 weeks
